In paper PMC10289903 (Investigational New Drugs, 2023):
Like-named read-outs stand apart in the source and are kept apart here.

Tests used:
[1] = tested on: locally advanced or metastatic solid tumors; experiment: Preliminary antitumor activity (ORR, DCR, SD, PFS; RECIST v1.1); type: in vivo, human; conditions: for Duration of response: confirmed partial response
Method: Preliminary efficacy was assessed using objective response rate (ORR) in patients with measurable disease, disease control rate (DCR) and progression-free survival (PFS), all in accordance with RECIST v1.1 [17]. Responses for ORR required confirmation after at least 4 weeks.
After initiation of treatment, tumor burden was assessed at baseline and every 8 weeks (± 1 week) for the qd 5/9 dosing, and every 9 weeks (± 1 week) for the qd 5/2 treatment schedule, respectively, using computed tomography or magnetic resonance imaging of the chest and abdomen or pelvis.
The per protocol analysis set was defined as a subset of the full analysis set, excluding subjects having an important protocol deviation, to be used for analyses of efficacy endpoints if appropriate.

clinical = conditions: in vivo
Method: Pre-dose samples were also collected on day 5 of treatment cycle 5.
The slope estimate (β) and corresponding 90% confidence interval (CI) were calculated, where a β estimate of 1 with 90% CI entirely within the bounds of 0.8–1.25 indicated perfect dose proportionality.

[2] = tested on: recurrent uterine serous carcinoma; conditions: 300 mg qd days 1–5 and 8–12 of a 21-day cycle, monotherapy, cited from earlier work
[3] = tested on: recurrent ovarian cancer with progressive disease while receiving PARPi; conditions: cited from earlier work
[4] = qd 2.3: 250 mg qd 5/2 weekly (n=10)
[5] = qd 3.3: 300 mg 5/2 weekly (n=2)

Compound: C=CCn1c(=O)c2cnc(Nc3ccc(N4CCN(C)CC4)cc3)nc2n1-c1cccc(C(C)(C)O)n1 [adavosertib, Adavosertib]
- Duration of response ([1]; 1 patient with anal carcinoma, qd 1.2 cohort): 6.9 months
- Duration of response ([1]; 1 patient with thymoma, bid 2 cohort): 3.7 months
- DCR, CP + PR + SD/n (%) ([1]; Total (N=62)): 48.4 CP + PR + SD/n (%)
- Median PFS, months (95% CI) ([1]; Total (N=62)): 2.7 (2.0–3.8) months
- ORR, CP + PR/n (%) ([1]; Total, 58 patients with measurable disease at baseline): 3.4 CP + PR/n (%)
- Patients with confirmed (or unconfirmed) complete responses ([1]; all cohorts): None
- Patients alive and progression-free at data cutoff ([1]; all cohorts (N=62)): 14 (22.6%) n (%)
- Patients who had experienced a PFS event at data cutoff ([1]; all cohorts (N=62)): 47 (75.8%) n (%)
- DCR, CP + PR + SD/n (%) ([1]; bid 2: 150 mg bid 5/9 (n=6)): 2 (33.3) CP + PR + SD/n (%)
- Median PFS, months (95% CI) ([1]; bid 2: 150 mg bid 5/9 (n=6)): 1.9 (1.0–NC) months
- Patients progression-free at 6 months after first dose ([1]; of 62 patients, 95% CI 10.0–32.2): 19.8%
- DCR, CP + PR + SD/n (%) ([1]; qd 1.1: 200 mg qd 5/9 (n=5)): 2 (40.0) CP + PR + SD/n (%)
- Median PFS, months (95% CI) ([1]; qd 1.1: 200 mg qd 5/9 (n=5)): 2.0 (0.6–NC) months
- ORR, CP + PR/n (%) ([1]; qd 1.1: 200 mg qd 5/9 (n=5)): 0 CP + PR/n (%)
- DCR, CP + PR + SD/n (%) ([1]; qd 1.2: 200 mg qd 5/2 (n=6)): 2 (33.3) CP + PR + SD/n (%)
- Median PFS, months (95% CI) ([1]; qd 1.2: 200 mg qd 5/2 (n=6)): 2.7 (1.2–9.0) months
- DCR, CP + PR + SD/n (%) ([1]; qd 2.1: 250 mg qd 5/9 (n=4)): 1 (25.0) CP + PR + SD/n (%)
- Median PFS, months (95% CI) ([1]; qd 2.1: 250 mg qd 5/9 (n=4)): 1.9 (1.8–4.1) months
- ORR, CP + PR/n (%) ([1]; qd 2.1: 250 mg qd 5/9 (n=4)): 0 CP + PR/n (%)
- DCR, CP + PR + SD/n (%) ([1]; qd 2.2: 250 mg qd 5/2 (n=3)): 2 (66.7) CP + PR + SD/n (%)
- Median PFS, months (95% CI) ([1]; qd 2.2: 250 mg qd 5/2 (n=3)): 3.7 (1.2–11.0) months
- ORR, CP + PR/n (%) ([1]; qd 2.2: 250 mg qd 5/2 (n=3)): 0 CP + PR/n (%)
- DCR, CP + PR + SD/n (%) [1, 4]: 3 (30.0) CP + PR + SD/n (%)
- Median PFS, months (95% CI) [1, 4]: 2.1 (0.6–4.1) months
- ORR, CP + PR/n (%) [1, 4]: 0 CP + PR/n (%)
- DCR, CP + PR + SD/n (%) ([1]; qd 3.1: 300 mg qd 5/9 (n=4)): 3 (75.0) CP + PR + SD/n (%)
- Median PFS, months (95% CI) ([1]; qd 3.1: 300 mg qd 5/9 (n=4)): 7.6 (2.7–9.3) months
- ORR, CP + PR/n (%) ([1]; qd 3.1: 300 mg qd 5/9 (n=4)): 0 CP + PR/n (%)
- DCR, CP + PR + SD/n (%) ([1]; qd 3.2: 300 mg qd 5/2 (n=16)): 11 (68.8) CP + PR + SD/n (%)
- Median PFS, months (95% CI) ([1]; qd 3.2: 300 mg qd 5/2 (n=16)): 3.2 (2.1–5.0) months
- ORR, CP + PR/n (%) ([1]; qd 3.2: 300 mg qd 5/2 (n=16)): 0 CP + PR/n (%)
- DCR, CP + PR + SD/n (%) [1, 5]: 0 CP + PR + SD/n (%)
- Median PFS, months (95% CI) [1, 5]: 2.6 (NC–NC) months
- ORR, CP + PR/n (%) [1, 5]: 0 CP + PR/n (%)
- Dose proportionality power model slope β, AUC0–10 (clinical; human): 1.31
- Dose proportionality power model slope β, Cmax (clinical; human): 1.31
- half-life (clinical; human, po): 5 to 12 h
- Dose proportionality of systemic exposure (clinical): more than dose proportional
- ORR ([2]; 95% CI 15.1–47.5): 29.4%
- Median PFS [2]: 6.1 months
- ORR ([3]; adavosertib alone, 90% CI 12–38): 23%
- ORR ([3]; combination therapy with PARP inhibitor, 90% CI 16–44): 29%
